Measured values from US5760241A, “Thiol derivatives with metallopeptidase inhibitory activity” (priority 1996, dated 1998).

Molecular target: T1, NEP (membranes from rat kidney cortex) (Rattus norvegicus, UniProt P07861)
T1 construct: from tissue; host or cells: kidney cortex membranes of male Sprague-Dawley rats
T1 sequence (P07861 1-750): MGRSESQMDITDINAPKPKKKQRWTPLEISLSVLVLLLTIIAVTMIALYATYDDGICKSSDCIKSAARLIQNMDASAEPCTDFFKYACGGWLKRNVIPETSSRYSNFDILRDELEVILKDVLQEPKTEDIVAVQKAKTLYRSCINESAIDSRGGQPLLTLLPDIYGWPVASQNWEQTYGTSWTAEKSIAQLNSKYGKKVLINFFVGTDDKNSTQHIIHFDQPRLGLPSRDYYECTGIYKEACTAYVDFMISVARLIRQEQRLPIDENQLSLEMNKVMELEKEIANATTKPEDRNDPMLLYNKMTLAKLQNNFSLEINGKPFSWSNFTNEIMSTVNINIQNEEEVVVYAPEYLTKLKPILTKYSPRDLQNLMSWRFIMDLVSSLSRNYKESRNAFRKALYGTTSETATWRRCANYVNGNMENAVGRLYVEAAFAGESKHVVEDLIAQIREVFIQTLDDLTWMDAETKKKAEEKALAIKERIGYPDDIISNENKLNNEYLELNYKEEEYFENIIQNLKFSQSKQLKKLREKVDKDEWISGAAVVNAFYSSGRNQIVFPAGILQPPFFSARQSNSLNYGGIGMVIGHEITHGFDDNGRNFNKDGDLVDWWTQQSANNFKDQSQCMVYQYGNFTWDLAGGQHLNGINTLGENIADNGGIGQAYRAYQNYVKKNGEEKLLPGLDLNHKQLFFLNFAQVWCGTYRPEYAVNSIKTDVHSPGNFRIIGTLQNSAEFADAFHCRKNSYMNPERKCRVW
Assay: In vitro NEP-inhibitory activity in rat kidney cortex membranes ([3H][Leu5]-enkephaline substrate)
Assay type: biochemical, male Sprague-Dawley rats
Settings: 20 minutes at 30° C.; [3H][Leu5]-enkephaline 15 nM
Experimental: a) NEP-inhibitory activity
The NEP-inhibitory activity was evaluated in membranes from rat kidney cortex prepared according to the procedure described by T. Maeda et al. in Biochim. Biophys. Acta 1983, 731(1), 115-120.
By working at 0°-4° C., kidneys were removed from male Sprague-Dawley rats weighing approximately 300 g.
Cortex was carefully dissected, finely minced and suspended in a homogenization buffer (10 mM sodium phosphate pH 7.4 containing 1 mM MgCl2, 30 mM NaCl, 0.02% NaN3) 1:15 weight/volume.
The tissue was then homogenized for 30 seconds using an Ultra-Turrax homogenizer.
Approximately 10 ml of homogenate were layered over 10 ml of sucrose (41% weight/volume) and centrifuged at 31200 rpm for 30 minutes at 4° C. in a fixed angle rotor. The membranes were collected from the buffer/sucrose interface, washed twice with 50 mM TRIS/HCl buffer (pH 7.4) and resuspended into the same buffer for storage.
The membranes were stored in small aliquots at -80° C. until use.
The NEP-inhibitory activity was evaluated according to the method described by C. Llorens et al., in Eur. J. Pharmacol., 69, (1981), 113-116, as reported hereinafter.
Aliquots of the membrane suspension prepared as above described (concentration 5 μg/ml of proteins) were preincubated in the presence of an aminopeptidase inhibitory (Bestatin--1 mM) for 10 minutes at 30° C.
[^3 H][Leu^5 ]-enkephaline (15 nM) and buffer TRIS/HCl pH 7.4 (50 mM) were added in order to obtain a final volume of 100 μl.
Incubation (20 minutes at 30° C.) was stopped by adding HCl 0.1M (100 μl).
The formation of the metabolite [^3 H]Tyr-Gly-Gly was quantified by chromatography on polystyrene columns (Porapak Q).

IC50: 5 nM
Compound: O=C(N[C@@H](Cc1ccc(-c2ccccc2)cc1)C(=O)O)C(CS)Cc1ccccc1 (stereo partly shown) [compound 41]
